Assay results taken from patent publication US20110136880A1, “Latrunculin-Based Macrolides and Their Uses” (priority 2009, published 2011).
Where two headings read alike, the source gives them in different places.

Legend:
PC-3 = experiment: MTT proliferation assay, PC-3; assay type: cell-based, human; conditions: Homo sapiens, read-out: IC50 (μM) PC-3
From the text: (§1) The antiproliferative and anti-invasive activities of compounds 1-14 were quantified using MTT and cell invasion assay kits, respectively. Latrunculin A (compound 1) was used as a positive control in all biological assays, because it is known to be an actin polymerization inhibitor, with cytotoxic, antiproliferative, and anti-invasive activities. The 3-[4,5-dimethylthiazol-2-yl]-2,5-diphenyl tetrazolium bromide (MTT) assay selectively detects living cells in a quantitative, colorimetric fashion, based on a living cell's ability to reduce MTT to an insoluble, purple formazan dye. The MTT assay is routinely used to assess cytotoxicity and proliferation inhibition activities. The antiproliferative activities of compounds 1-14 were measured against two human mammary gland adenocarcinoma cell lines, MCF7 and MDA-MB-231, and against human prostate cancer cells PC-3 at five different doses (0.1, 0.5, 1, 10, and 50 μM). While many of the semisynthetic latrunculins had similar activity levels, some had greater activity than compound 1. […] Although the MDA-MB-231 cells were more resistant than MCF7 against most latrunculin derivatives tested, compound 14 had potent activity against both cell lines.
(§2) MTT Proliferation Assay. The growth of MCF7, MDA-MB-231, and PC-3 cancer cell lines was measured using an MTT kit (TACS™, TREVIGEN®, Inc.). Exponentially growing cells were plated in a 96-well plate at a density of 8×10^3 cells per well, and allowed to attach for 24 h. Complete growth medium was then replaced with 100 μL of RPMI serum-free medium containing various concentrations (50, 10, 1, 0.5, 0.1 μM) of the particular test compound. Culture continued at 37° C. under 5% CO2. After 72 h of culture, the cells were treated with MTT solution (10 μL/well) at 37° C. for 4 h. The color reaction was stopped by adding solubilization/stop solution (100 μL/well). Incubation continued at 37° C. continued to completely dissolve the formazan dye product. Absorbance of the samples was determined at 570 nm with an ELISA plate reader (BioTek, VT). The number of cells per well was calculated against a standard curve that had been prepared by plating various concentrations of cells, as determined by hemocytometer, at the start of each experiment. IC50 for each compound was calculated using a nonlinear regression curve fit of log concentration versus the number of cells/well, using GraphPad Prism 5.0 (GraphPad Software, La Jolla, Calif.).

MDA-MB-231 = experiment: MTT proliferation assay, MDA-MB-231; assay type: cell-based, human; conditions: Homo sapiens, read-out: IC50 (μM) MDA-MB-231
From the text: as §1, §2

pyrene-conjugated actin = target: T1, pyrene-conjugated actin (Oryctolagus cuniculus, UniProt P68135); experiment: Pyrene actin polymerization assay; assay type: biochemical; conditions: for inhibition at 0.1 µM: read-out: Actin polymerization inhibition (%) 100 nM; for inhibition at 1 µM: read-out: Actin polymerization inhibition (%) 1 μM; for IC50: mean ± SEM, triplicate
T1 construct: purchased Cytoskeleton, Denver, Colo
Experimental: An actin polymerization kit was used to assess the direct actin-binding activity of each analogue at two concentrations: 100 nM and 1 μM. This kit is based on the enhanced fluorescence of pyrene-conjugated actin that occurs during polymerization. When pyrene-G-actin (monomer) forms pyrene-F-actin, fluorescence is enhanced. The enhanced fluorescence is used to follow polymerization over time. Table 2 lists activities as the percentage of actin polymerization inhibition, compared to the negative vehicle control (DMSO), along with calculated IC50.
Pyrene-Actin Polymerization Assays. Actin polymerization assays were performed in accordance with the manufacturer's instructions (Cytoskeleton, Denver, Colo.). Briefly, […] final concentration of monomeric actin (1:10 pyrene labeled) was incubated on ice for 10 min with one of various concentrations of one of the latrunculin derivatives. Samples were then equilibrated 10 min in an ELISA plate reader (BioTek, VT), after which polymerization was induced by adding KCl, MgCl2, and ATP. Compounds 1-14 were tested at 0.1, 0.5, 1.0, and 10 μM. The IC50 for each compound was calculated using GraphPad Prism 5.0.
Pyrene-actin polymerization assays. Actin polymerization inhibitory activity is assessed using the Cytoskeleton Actin Polymerization kit (Cytoskeleton, Denver, Colo.). Briefly, […] (final concentration) of monomeric actin (1:10 pyrene labeled) is incubated on ice for 10 min with one of various concentrations of the test latrunculin compound. Samples are equilibrated 10 min in an ELISA plate reader (BioTek, VT), after which polymerization is induced by adding KCl, MgCl2, and ATP. Compounds are tested at 0.1, 0.5, 1.0, and 10 μM. The IC50 for each compound is calculated using GraphPad Prism 5.0.

MCF7 = experiment: MTT proliferation assay, MCF7; assay type: cell-based, human; conditions: Homo sapiens, read-out: IC50 (μM) MCF7
From the text: as §1, §2

MDA-MB-231 cells = experiment: Cultrex BME cell invasion assay; assay type: cell-based, human; conditions: for anti-invasive activity compared with compound 1: 1 and 0.5 μM doses
Experimental: The anti-invasive activities of compounds 1-14 were measured using a 96 well basement membrane extract (BME) cell invasion assay kit against the highly metastatic MDA-MB-231 cells. This assay employs a simplified Boyden Chamber with a polyethylene terephthalate membrane (8 μm pore size). Cell invasion was quantified using calcein-acetomethylester (calcein-AM). Cells internalize calcein-AM; intracellular esterases then cleave the acetomethylester moiety to generate free calcein. Free calcein fluoresces brightly. This fluorescence may be used to quantify the number of cells that have invaded across the BME. To correlate the anti-invasive activities of the latrunculin A derivatives with their actin-disrupting activities, compounds 1-14 were each tested at non-toxic concentrations. […] Accordingly, all compounds were tested at 0.1, 0.5, and 1.0 μM. Compound 3 killed 17% of MDA-MB-231 cells at 1.0 μM, while the same dose of compound 3 inhibited 95% of MDA-MB-231 cells' invasion. […] The anti-invasive activities of compounds 1-14 are attributed primarily to the inhibition of actin polymerization, not to cell death per se.
Cultrex® Cell Invasion Assay. Anti-invasive activities were measured using Trevigen's Cultrex® Cell Invasion Assay as described in K. Tamilarasan et al., BMC Cell Biol. 2006, 7, 17-30; and P. Borghesani et al., Development. 2002, 6, 1435-1442. About 50 μL of basement membrane extract (BME) coat was added to each well. After incubation for 4 h at 37° C. under 5% CO2, 50,000 MDA-MB-231 cells in 50 μL of serum free RPMI medium were added to each well in the top chamber, along with the test compound at one of several concentrations (0.1, 0.5, 1 μM). About 150 μL of RPMI medium was added to the lower chamber in 10% FBS and penicillin/streptomycin, using fibronectin ([…]) and N-formyl-met-leu-phe (10 nM) as chemoattractants. Cells were allowed to migrate to the lower chamber at 37° C. under 5% CO2. After 24 h, the top and bottom chambers were aspirated and washed with the washing buffer that had been supplied with the kit. About 100 μL of Cell Dissociation Solution/Calcein-AM solution was added to the bottom chamber, and the cells were incubated at 37° C. under CO2 for 1 h. Briefly, the cells internalize calcein-AM, and then the intracellular esterases cleave the AM moiety to generate free calcein. […] The number of cells that had invaded through the BME coat was calculated using a standard curve.

[1] = MDA-MB-231, MTT, 72 h, mean ± SEM
[2] = 100 nM, compared to vehicle control (DMSO)
[3] = 1 μM, compared to vehicle control (DMSO)

| SMILES | IC50 (PC-3; PC-3, MTT, 72 h) [µM] | IC50 (MDA-MB-231; [1]) [µM] | inhibition at 0.1 µM (pyrene-conjugated actin; [2]) [%] | inhibition at 1 µM (pyrene-conjugated actin; [3]) [%] | IC50 (pyrene-conjugated actin) [nM] | IC50 (MCF7; MCF7, MTT, 72 h, mean ± SEM) [µM] | anti-invasive activity compared with compound 1 (MDA-MB-231 cells) | IC50 (PC-3; PC-3, 72 h) [µM] | IC50 (MDA-MB-231; MDA-MB-231, 72 h) [µM] | inhibition at 0.1 µM (pyrene-conjugated actin) [%] | inhibition at 1 µM (pyrene-conjugated actin) [%] | IC50 (MCF7; MCF7, 72 h) [µM] | fold more active against cell invasion than latrunculin A (compound 1) (MDA-MB-231 cells; 0.5 μM) [fold] |
| --- | --- | --- | --- | --- | --- | --- | --- | --- | --- | --- | --- | --- | --- |
| CO[C@]1([C@@H]2CSC(=O)N2Cc2ccccc2)C[C@H]2C[C@@H](CC[C@H](C)/C=C\C=C\CC/C(C)=C\C(=O)O2)O1 [Compound 9, 17-O-Methyl-N-benzyllatrunculin A] | 8.3 | 6.82 ± 1.41 | 33 | 67 | 333 ± 76 | 0.78 ± 0.24 | – | – | – | – | – | – | – |
| CO[C@]1([C@@H]2CSC(=O)N2)C[C@H]2C[C@@H](CC[C@H](C)/C=C\C=C\CC/C(C)=C\C(=O)O2)O1 [Compound 2, 17-O-Methyllatrunculin A] | 22.3 | 23.4 ± 0.85 | 6 | 21 | 9230 ± 825 | 10.2 ± 1.72 | – | – | – | – | – | – | – |
| CCN1C(=O)SC[C@H]1[C@@]1(O)C[C@H]2C[C@@H](CC[C@H](C)/C=C\C=C\CC/C(C)=C\C(=O)O2)O1 [Compound 12, N-Ethyllatrunculin A] | 5.72 | 7.19 | 32 | 70 | 283 ± 51 | 0.95 | equipotent to compound 1 | – | – | – | – | – | – |
| CO[C@]1([C@@H]2CSC(=O)N2C2CCCC2)C[C@H]2C[C@@H](CC[C@H](C)/C=C\C=C\CC/C(C)=C\C(=O)O2)O1 [Compound 7, 17-O-Methyl-N-cyclopentanelatrunculin A] | 7.24 | 5.07 ± 0.72 | 20 | 49 | 1050 ± 271 | 5.3 ± 1.32 | – | – | – | – | – | – | – |
| C/C1=C/C(=O)O[C@@H]2C[C@@H](CC[C@H](C)/C=C\C=C\CC1)O[C@@](O)([C@@H]1CSC(=O)N1)C2 [Compound 1, Latrunculin A, reference compound] | – | – | – | – | 284 ± 72 | – | – | 3.9 | 4.19 ± 1.49 | 30 | 73 | 0.48 ± 0.04 | – |
| CCN1C(=O)SC[C@H]1[C@@]1(OC)C[C@H]2C[C@@H](CC[C@H](C)/C=C\C=C\CC/C(C)=C\C(=O)O2)O1 [Compound 6, 17-O-Methyl-N-ethyllatrunculin A] | 29.3 | > 50 | 0 | 18 | > 10000 | 20.6 ± 2.77 | – | – | – | – | – | – | – |
| CO[C@]1([C@@H]2CSC(=O)N2C(=O)c2ccccc2)C[C@H]2C[C@@H](CC[C@H](C)/C=C\C=C\CC/C(C)=C\C(=O)O2)O1 [Compound 10, 17-O-Methyl-N-benzoyllatrunculin A] | 4.7 | 4.48 ± 1.79 | 17 | 53 | 834 ± 109 | 0.55 ± 0.091 | – | – | – | – | – | – | – |
| CO[C@]1([C@@H]2CSC(=O)N2C)C[C@H]2C[C@@H](CC[C@H](C)/C=C\C=C\CC/C(C)=C\C(=O)O2)O1 [Compound 5, 17-O-Methyl-N-methyllatrunculin A] | 19.4 | 19.9 ± 3.27 | 11 | 19 | > 10000 | 13.1 ± 3.69 | – | – | – | – | – | – | – |
| C/C1=C/C(=O)O[C@@H]2C[C@@H](CC[C@H](C)/C=C\C=C\CC1)O[C@@](O)([C@@H]1CSC(=O)N1Cc1ccccc1)C2 [Compound 13, N-Benzyllatrunculin A] | 3.8 | 2.72 | 24 | 64 | 445 ± 79 | 0.63 | – | – | – | – | – | – | 3.1 |
| C/C1=C/C(=O)O[C@@H]2C[C@@H](CC[C@H](C)/C=C\C=C\CC1)O[C@@](OC(=O)c1ccccc1)([C@@H]1CSC(=O)N1)C2 [Compound 4, 17-O-Benzoyllatrunculin A] | 6.44 | 5.05 ± 0.36 | 23 | 67 | 466 ± 51 | 0.52 ± 0.14 | equipotent to compound 1 | – | – | – | – | – | – |
| CO[C@]1([C@@H]2CSC(=O)N2CCCO)C[C@H]2C[C@@H](CC[C@H](C)/C=C\C=C\CC/C(C)=C\C(=O)O2)O1 [Compound 8, 17-O-Methyl-N-(3′-hydroxypropyl)latrunculin A] | 34.2 | > 50 | 0 | 21 | 8550 ± 574 | 19.2 ± 3.91 | – | – | – | – | – | – | – |
